Reference: patent publication US20060020029A1, “Pharmaceutical compositions from ethnobotanicals” (priority 2004, published 2006)
In brackets after ≈: the same amount, converted by molar mass. Several values for one entry are separate records, joined by “and”; a condition that tells them apart may be missing. Equal values may be shown once.

Columns and labels:
[1] = system: Herpes simplex virus type 1 (MacIntyre strain); test: CPE assay, HSV-1 specificity; format: cell-based
Protocol: (§1) To determine whether the fractions are specific RSV inhibitors rather than general antiviral agents, the inventors tested them against influenza type A/Shangdong/09/93 (H3N2), herpes simplex type 1 (MacItyre), and herpes simplex type 2 (MS) using the CPE assay system.
(§2) CJ4-16-4 was tested using influenza type A, herpes simplex virus type 1, and herpes simplex virus type 2 using the CPE assay with MDCK or Vero cells.

[2] = system: RSV (Long strain); test: CPE assay, RSV-Long in Hep-2 cells; format: cell-based, respiratory syncytial virus; conditions: Hep-2 cells, CPE assay; for EC50: μM using the estimated FW-516
[3] = system: Influenza A-Shangdong/09/93 (H3N2); test: CPE assay, influenza A specificity; format: cell-based, influenza type A
Protocol: as §1, §2

[4] = system: RSV-A2; test: CPE assay, RSV-A2 in Hep-2 cells
Protocol: (§3) The cell line was propagated in MEM supplemented with 10% heat-inactivated fetal bovine serum (FBS) containing 100 μg/ml of antibiotics (streptomycin/penicillin). […] The overnight medium (MEM containing 10% FBS) was removed, and wells were rinsed twice with 1× phosphate buffer saline (PBS, 200 μl) before adding 10×TCID50 of RSV suspension in fresh medium (MEM plus 2% FBS) to each well, except for cell only wells. […] CellTiter 96 Aqueous Non-Radioactive Cell Proliferation Assay (Promega) was used to monitor the antiviral activity following the manufacturer's instruction. After incubation, the cells were rinsed twice with 200 μl of 1×PBS prior to the addition of 100 μl of fresh medium (MEM plus 10% FBS). […] The extent of cell viability was measured at 490 nm using an ELISA reader, and the absorbance was used to calculate percent inhibition. Antiviral activity of each EB fraction or ribavirin is expressed as IC50, which represents the concentration of the test substance required to reduce the virus infection (as measured by the destruction of the host cells) by 50%.
(§4) Hep-2 cells were used in the CPE assay to determine anti-RSV properties.

[5] = Stability in methanol (HPLC); format: physicochemical
Protocol: The stability of 3,5 Dicaffeoyl-Quinic Acid (3,5-DCQA) was first evaluated in methanol. 3.8 mg 3,5-DCQA was dissolved in 0.2375 ml MeOH (conc.=16 mg/ml), and then diluted as ½, ¼ and ⅛ dilution, respectively. All samples were subjected to HPLC in 0 Day, 1 Day, 2 Day and 4 Day, and the Area% of 3,5-DCQA was calculated.

[6] = system: RSV-Long; test: Time of addition, CPE assay; format: cell-based, respiratory syncytial virus; conditions: for EC50, time of addition: Hep-2; for EC50: estimated FW-516
Protocol: Determine the Time of Addition for EB Fractions. […] This activity is related to the life cycle of the virus and the step in the cycle where the compounds act. In this example, experiments were performed to investigate the effect of the time of addition of EB fractionated products on anti-RSV activity.
Mechanism of action studies were performed as follows. Mechanism of action studies were performed using CJ4-16-4 in a CPE assay with Hep-2 cells.

[7] = Stability in DMSO / water (HPLC); format: physicochemical
Protocol: Next, the stability of 3,5-DCQA was evaluated in various concentrations of DMSO. 5.2 mg 3,5-DCQA was dissolved in 0.208 ml DMSO (conc.=25 mg/ml), and then diluted with water as 40% DMSO in water solution, 20% DMSO in water solution, and 10% DMSO in water solution, respectively. All samples were subjected on HPLC in 0 Day, 1 Day, 2 Day and 4 Day, and the Area % of 3,5-DCQA was calculated.
In the presence of water, 3,5-DCQA was converted into 4,5-dicaffeoylquinic acid (4,5-DCQA), as observed using HPLC. HPLC analysis of 3,5-DCQA in DMSO and H2O (conc.=2.5 mg/ml) at 0 day, 2 Day and 4 Day indicated a progressive degradation of 3,5-DCQA. By the forth day in 10% DMSO in H2OP, over 11% of 3,5-DCQA was changed into 4,5-DCQA.

[8] = system: Vero cells
[9] = system: RSV-A6 57754; test: CPE assay, RSV-A6 57754 in Hep-2 cells
Protocol: as §3, §4

[10] = system: MDCK cells; test: Cytotoxicity in MDCK cells
[11] = system: RSV A2; test: Cotton rat RSV infection model, pulmonary titer; conditions: for RSV Pulmonary Titer Mean ± SD / RSV Pulmonary Titer in individual CR (A-D): harvest day 4
Protocol: All groups consisted of four randomly selected cotton rats. All test materials were administered intraperitoneally with once daily dosing. The placebo group was administered distilled water at volumes and schedules identical to the other groups receiving investigational test articles. In general, timing of administration of ribavarin to the ribavarin-treated group paralleled that of the other treatment groups except that initiation of dosing was on Day 1 for Experiments 1 and 2 and Day 0 for Experiment 3. The dose of ribavarin was 90 mg/kg/day in Experiments 1 and 3 and 180 mg/kg/day in Experiment 2. All animals were inoculated intranasally with approximately 100 median cotton rat infectious doses (CRID50) of RSV A2 on Day 0. Experiments were terminated on either Day 3 or 4 post-infection. […] On the day that the experiment was terminated, all CRs were sacrificed using CO2 to asphyxiate the animals. The lungs from the animals were subsequently removed. The lungs of sacrificed animals were removed, rinsed in sterile phosphate-buffered saline (PBS; pH 7.2) and weighed. Each set of lungs was then transpleurally lavaged using 3 ml of 2% FCS-MEM media. The resulting lung fractions were kept on ice until they were assayed for RSV. The lung fractions of animals from each group were tested for the levels of RSV present.

[12] = system: Hep-2 cells
[13] = system: Herpes simplex virus type 2 (MS-strain); test: CPE assay, HSV-2 specificity; format: cell-based
Protocol: as §1, §2

[14] = CPE assay with MDCK or Vero cells
[15] = 12.5 mg/kg/day B.I.D i.p. D0-D3, 50% DMSO
[16] = 25 mg/kg/day B.I.D i.p. D0-D3, 50% DMSO

For `O=C(/C=C/c1ccc(O)c(O)c1)OC1CC(O)(C(=O)O)CC(OC(=O)/C=C/c2ccc(O)c(O)c2)C1O` (centres unmarked) [CJ4-16-4, 3,5-di-O-caffeoylquinic acid], the “activity against HSV-1 (in words)” value [1] was “inactive”, the “EC50, Herpes simplex virus type 1 (MacIntyre strain)” value [1, 14] was greater than 50 µg/mL and the EC50 ([1]; μM using the estimated FW-516) was greater than 100 µM. The “EC50, RSV-Long” value [2] was 0.035 µg/mL (≈ 0.0678 µM), the EC50 [2] was 0.068 µM and the EC50 ([2]; listed as 3,5 dicaffeoyl-quinic acid) was roughly 0.068 µM. The EC50 ([2]; listed as IV) was 0.068 µM, the “activity against Influenza A (in words)” value [3] was “inactive” and the “EC50, Influenza A-Shangdong/09/93 (H3N2)” value [3, 14] was greater than 50 µg/mL. For the same compound, the EC50 ([3]; μM using the estimated FW-516) was greater than 100 µM, the “EC50, RSV-A2” value ([4]; Hep-2 cells, CPE assay) was 0.084 µg/mL (≈ 0.163 µM) and the EC50 ([4]; read-out: EC50, RSV-A2, μM using the estimated FW-516) was 0.163 µM. The “Area % of 3,5-DCQA (HPLC)” value ([5]; Stock (16 mg/ml), 0 Day) was 97.40 Area%, the “Area % of 3,5-DCQA (HPLC)” value ([5]; Stock (16 mg/ml), 1 Day) was 97.16 Area% and the “Area % of 3,5-DCQA (HPLC)” value ([5]; Stock (16 mg/ml), 2 Day) was 96.42 Area%. The “Area % of 3,5-DCQA (HPLC)” value ([5]; Stock (16 mg/ml), 4 Day) was 95.39 Area%, the “Area % of 3,5-DCQA (HPLC)” value ([5]; ¼ dilution, 2 Day) was 96.65 Area% and the “Area % of 3,5-DCQA (HPLC)” value ([5]; ¼ dilution, 4 Day) was 95.88 Area%. For the same compound, the “Area % of 3,5-DCQA (HPLC)” value ([5]; ½ dilution, 2 Day) was 97.03 Area%, the “Area % of 3,5-DCQA (HPLC)” value ([5]; ½ dilution, 4 Day) was 95.66 Area% and the “Area % of 3,5-DCQA (HPLC)” value ([5]; ⅛ dilution, 0 Day) was 97.32 Area%. For the same compound, the “Area % of 3,5-DCQA (HPLC)” value ([5]; ⅛ dilution, 1 Day) was 96.84 Area%, the “Area % of 3,5-DCQA (HPLC)” value ([5]; ⅛ dilution, 2 Day) was 94.44 Area% and the “Area % of 3,5-DCQA (HPLC)” value ([5]; ⅛ dilution, 4 Day) was 94.27 Area%. For the same compound, the “EC50, time of addition” value ([6]; 0-Hr-Post-infection) was 0.051 µg/mL, the EC50 ([6]; 0-Hr-Post-infection) was 99 nM and the “EC50, time of addition” value ([6]; 2-Hr-Post-infection) was 0.036 µg/mL. For the same compound, the EC50 ([6]; 2-Hr-Post-infection) was 70 nM, the “EC50, time of addition” value ([6]; 4-Hr-Post-infection) was 0.039 µg/mL and the EC50 ([6]; 4-Hr-Post-infection) was 76 nM. For the same compound, the “EC50, time of addition” value ([6]; 6-Hr-Post-infection) was 0.043 µg/mL, the EC50 ([6]; 6-Hr-Post-infection) was 83 nM and the “EC50, time of addition” value ([6]; 8-Hr-Post-infection) was 0.039 µg/mL. The EC50 ([6]; 8-Hr-Post-infection) was 76 nM, the “EC50, time of addition” value ([6]; 24-Hr-Post-infection) was 0.069 µg/mL and the EC50 ([6]; 24-Hr-Post-infection) was 130 nM. The “3,5-DCQA changed into 4,5-DCQA” value ([7]; 10% DMSO in H2O (2.5 mg/ml), fourth day) was “over 11%”, the “Area % of 3,5-DCQA (HPLC)” value ([7]; 10% DMSO in H2O, 0 Day) was 97.25 Area % and the “Area % of 3,5-DCQA (HPLC)” value ([7]; 10% DMSO in H2O, 1 Day) was 93.60 Area %. The “Area % of 3,5-DCQA (HPLC)” value ([7]; 10% DMSO in H2O, 2 Day) was 89.50 Area %, the “Area % of 3,5-DCQA (HPLC)” value ([7]; 10% DMSO in H2O, 4 Day) was 86.01 Area % and the “Area % of 3,5-DCQA (HPLC)” value ([7]; 20% DMSO in H2O, 1 Day) was 94.56 Area %. The “Area % of 3,5-DCQA (HPLC)” value ([7]; 20% DMSO in H2O, 2 Day) was 91.91 Area %, the “Area % of 3,5-DCQA (HPLC)” value ([7]; 20% DMSO in H2O, 4 Day) was 89.08 Area % and the “Area % of 3,5-DCQA (HPLC)” value ([7]; 40% DMSO in H2O, 1 Day) was 96.33 Area %. For the same compound, the “Area % of 3,5-DCQA (HPLC)” value ([7]; 40% DMSO in H2O, 2 Day) was 94.72 Area %, the “Area % of 3,5-DCQA (HPLC)” value ([7]; 40% DMSO in H2O, 4 Day) was 93.90 Area % and the “Area % of 3,5-DCQA (HPLC)” value ([7]; 100% DMSO (25 mg/ml), 0 Day) was 97.28 Area %. For the same compound, the “Area % of 3,5-DCQA (HPLC)” value ([7]; 100% DMSO (25 mg/ml), 1 Day) was 97.34 Area %, the “Area % of 3,5-DCQA (HPLC)” value ([7]; 100% DMSO (25 mg/ml), 2 Day) was 97.15 Area % and the “Area % of 3,5-DCQA (HPLC)” value ([7]; 100% DMSO (25 mg/ml), 4 Day) was 97.09 Area %. For the same compound, the “degradation in 100% DMSO (in words)” value ([7]; 100% DMSO, up to 4 Day) was “No statistically significant degradation”, the CC50 [8] was greater than 400000 nM and the “CC50, Vero” value [8] was greater than 200 µg/mL. The “EC50, RSV-A6 57754” value ([9]; Hep-2 cells, CPE assay) was 0.08 µg/mL (≈ 0.155 µM), the EC50 ([9]; read-out: EC50, RSV-A6 57754, μM using the estimated FW-516) was 0.16 µM and the “CC50, MDCK” value ([10]; isolated compounds) was greater than 200 µg/mL. For the same compound, the CC50 ([10]; read-out: CC50, MDCK, μM using the estimated FW-516) was greater than 400 µM, the “inhibition of RSV infection in cotton rat model” value ([11]; 12.5 mg/kg/day) was “over one log” and the “RSV Pulmonary Titer Mean ± SD” value [11, 15] was 3.3 ± 0.0 log10/g lung. The “RSV Pulmonary Titer in individual CR (A-D)” value [11, 15] was 3.3 log10/g lung, the Reduction ([11]; 12.5 mg/kg/day B.I.D i.p. D0-D3, vs placebo) was 1.1 Log 10 and the “RSV Pulmonary Titer Mean ± SD” value [11, 16] was 3.2 ± 0.3 log10/g lung. For the same compound, the “RSV Pulmonary Titer in individual CR (A-D)” value [11, 16] was 2.8 log10/g lung and 3.3 log10/g lung (3×), the Reduction ([11]; 25 mg/kg/day B.I.D i.p. D0-D3, vs placebo) was 1.2 Log 10 and the CC50 [12] was greater than 400000 nM. The “CC50, Hep 2” value [12] was greater than 200 µg/mL, the “cytotoxicity in Hep-2 cells (in words)” value [12] was “no significant cytotoxicity” and the “activity against HSV-2 (in words)” value [13] was “inactive”. The “EC50, Herpes simplex virus type 2 (MS-strain)” value [13, 14] was greater than 50 µg/mL and the EC50 ([13]; μM using the estimated FW-516) was greater than 100 µM.
